We go through 65 sequences from the supplement of paper PMC11208160.
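Also: IS621 bridge recombinase in Escherichia coli cells against a fixed T5 target plasmid.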

The nature of the data set: recombinant UMI read abundance after kanamycin selection (control-corrected) (log10(CPM+1)); higher = more efficient recombination; extreme values may be limits of the assay; sequences stand for … in AGTGCAGAGAAAATCGGCCAGTTTTCTCTGCCTGCAGTCCGCATGCCGTGGGACCCCTTGGGTTCTAACCTGTTGCCTAGATTTATGCAGCGGACTGCCTTTCTCCCAAAGTGATAAACCGG…AGGTTGGTTTCACT; site = the 11-nt donor. The method, then: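 Pooled E. coli donor-specificity screen for the IS621 bridge recombinase. Each library member carries a reprogrammed 11-nt donor and a full-length LE bridge RNA expressed in cis from the natural promoter, with a paired donor-binding loop (8-nt LDG + 4-nt RDG) and a target-binding loop fixed to T5. It is co-electroporated with a T5 target plasmid; recombinase is induced with 0.07 mM IPTG and recombinants are selected on kanamycin. UMIs are counted as CPM, averaged over two biological replicates and corrected by the unselected control. Molecule = full bridge RNA written as DNA, built from the T5 scaffold: LDG = donor specificity nt 1-8, RDG = reverse complement of nt 8-11.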
Consider “AAAACACCATGGACCGGTTTTCCCGGTAATCCGTATTTGCG (site AAAACACCTCG)”, for which the “recombinant UMI read abundance (log10)” value stood at 0.012.
In the case of “AAAACCCCATGGACCGGTTTTCCCGGTAATCCGTATTTGGA (site AAAACCCCTTC)”, the “recombinant UMI read abundance (log10)” value was 0.00874.
As to “AAAACTACATGGACCGGTTTTCCCGGTAATCCGTATTTGCG (site AAAACTACTCG)”, the “recombinant UMI read abundance (log10)” value worked out at 1.1.
In the case of “AAAAGAACATGGACCGGTTTTCCCGGTAATCCGTATTTGAA (site AAAAGAACTTT)”, the “recombinant UMI read abundance (log10)” value stood at 2.03.
“AAAAGACCATGGACCGGTTTTCCCGGTAATCCGTATTTGTA (site AAAAGACCTTA)”: the “recombinant UMI read abundance (log10)” value was determined as 0.
Then “AAAAGCACATGGACCGGTTTTCCCGGTAATCCGTATTTGCA (site AAAAGCACTTG)”, with 2.36.
As for “AAACATACATGGACCGGTTTTCCCGGTAATCCGTATTTGTG (site AAACATACTCA)”, the “recombinant UMI read abundance (log10)” value turned out to be 1.38.
“AAACCAGCATGGACCGGTTTTCCCGGTAATCCGTATTTGGC (site AAACCAGCTGC)”: the “recombinant UMI read abundance (log10)” value was determined as 0.
For “AAAGCTCCATGGACCGGTTTTCCCGGTAATCCGTATTTGCG (site AAAGCTCCTCG)” the value was 0.472; for “AAAGCTTCATGGACCGGTTTTCCCGGTAATCCGTATTTGGG (site AAAGCTTCTCC)”, 0.447.
As for “AAAGGGGCATGGACCGGTTTTCCCGGTAATCCGTATTTGGG (site AAAGGGGCTCC)”, the “recombinant UMI read abundance (log10)” value came out at 0.
For “AAAGTAGCATGGACCGGTTTTCCCGGTAATCCGTATTTGGC (site AAAGTAGCTGC)” the value was 2.01.
For the sequence “AAAGTCACATGGACCGGTTTTCCCGGTAATCCGTATTTGAC (site AAAGTCACTGT)”, the “recombinant UMI read abundance (log10)” value is 2.44.
Regarding “AAATATTCATGGACCGGTTTTCCCGGTAATCCGTATTTGGG (site AAATATTCTCC)”, the “recombinant UMI read abundance (log10)” value came to 0.372.
For “AAATCAGCATGGACCGGTTTTCCCGGTAATCCGTATTTGTT (site AAATCAGCTAA)”, the “recombinant UMI read abundance (log10)” value is 0.425.
For “AAATCGTCATGGACCGGTTTTCCCGGTAATCCGTATTTGCT (site AAATCGTCTAG)”, the “recombinant UMI read abundance (log10)” value turned out to be 2.36.
As for “AACAGACCATGGACCGGTTTTCCCGGTAATCCGTATTTGCG (site AACAGACCTCG)”, the “recombinant UMI read abundance (log10)” value was found to be 0.
For “AACAGACCATGGACCGGTTTTCCCGGTAATCCGTATTTGTA (site AACAGACCTTA)”, the “recombinant UMI read abundance (log10)” value was 1.25.
Turning to “AACAGCCCATGGACCGGTTTTCCCGGTAATCCGTATTTGCA (site AACAGCCCTTG)”, the “recombinant UMI read abundance (log10)” value was 0.756.
Turning to “AACAGCGCATGGACCGGTTTTCCCGGTAATCCGTATTTGAC (site AACAGCGCTGT)”, the “recombinant UMI read abundance (log10)” value was 2.
With “AACATGCCATGGACCGGTTTTCCCGGTAATCCGTATTTGCT (site AACATGCCTAG)”, the “recombinant UMI read abundance (log10)” value was 1.43.
For “AACCAAACATGGACCGGTTTTCCCGGTAATCCGTATTTGAA (site AACCAAACTTT)” the value was 1.31.
As to “AACCCAACATGGACCGGTTTTCCCGGTAATCCGTATTTGAC (site AACCCAACTGT)”, the “recombinant UMI read abundance (log10)” value was 2.68.
On to “AACCGACCATGGACCGGTTTTCCCGGTAATCCGTATTTGAT (site AACCGACCTAT)”, for which the “recombinant UMI read abundance (log10)” value was 0.0205.
“AACCGACCATGGACCGGTTTTCCCGGTAATCCGTATTTGAT (site AACCGCCCTAT)”: the “recombinant UMI read abundance (log10)” value was found to be 0.
As to “AACCGACCATGGACCGGTTTTCCCGGTAATCCGTATTTGAT (site AACCGGCCTAT)”, the “recombinant UMI read abundance (log10)” value is 0.0183.
On to “AACCGACCATGGACCGGTTTTCCCGGTAATCCGTATTTGAT (site AACCGTCCTAT)”, for which the “recombinant UMI read abundance (log10)” value worked out at 0.0119.
As for “AACCGTGCATGGACCGGTTTTCCCGGTAATCCGTATTTGTG (site AACCGTGCTCA)”, the “recombinant UMI read abundance (log10)” value came to 0.0421.
On to “AACCTTCCATGGACCGGTTTTCCCGGTAATCCGTATTTGAT (site AACCATCCTAT)”, for which the “recombinant UMI read abundance (log10)” value amounted to 0.00673.
For “AACCTTCCATGGACCGGTTTTCCCGGTAATCCGTATTTGAT (site AACCCTCCTAT)”, the “recombinant UMI read abundance (log10)” value came to 0.0165.
With “AACCTTCCATGGACCGGTTTTCCCGGTAATCCGTATTTGAT (site AACCGTCCTAT)”, the “recombinant UMI read abundance (log10)” value worked out at 0.0124.
In the case of “AACCTTCCATGGACCGGTTTTCCCGGTAATCCGTATTTGAT (site AACCTTCCTAT)”, the “recombinant UMI read abundance (log10)” value is 0.
For “AACGATGCATGGACCGGTTTTCCCGGTAATCCGTATTTGAC (site AACGATGCTGT)” the value was 2.22.
On to “AACGCCGCATGGACCGGTTTTCCCGGTAATCCGTATTTGTC (site AACGCCGCTGA)”, for which the “recombinant UMI read abundance (log10)” value amounted to 2.24.
Then “AACGGTCCATGGACCGGTTTTCCCGGTAATCCGTATTTGAT (site AACAGTCCTAT)”, with 0.00739; and “AACGGTCCATGGACCGGTTTTCCCGGTAATCCGTATTTGAT (site AACCGTCCTAT)”, with 0.
Regarding “AACGGTCCATGGACCGGTTTTCCCGGTAATCCGTATTTGAT (site AACGGTCCTAT)”, the “recombinant UMI read abundance (log10)” value is 0.
Then “AACGGTCCATGGACCGGTTTTCCCGGTAATCCGTATTTGAT (site AACTGTCCTAT)”, with 0.145.
“AACGTAACATGGACCGGTTTTCCCGGTAATCCGTATTTGCT (site AAAGTAACTAG)”: the “recombinant UMI read abundance (log10)” value was found to be 0.893.
On to “AACGTAACATGGACCGGTTTTCCCGGTAATCCGTATTTGCT (site AACGTAACTAG)”, for which the “recombinant UMI read abundance (log10)” value was found to be 2.51.
On to “AACGTAACATGGACCGGTTTTCCCGGTAATCCGTATTTGCT (site AAGGTAACTAG)”, for which the “recombinant UMI read abundance (log10)” value turned out to be 0.524.
Then “AACGTAACATGGACCGGTTTTCCCGGTAATCCGTATTTGCT (site AATGTAACTAG)”, with 1.49; and “AACGTATCATGGACCGGTTTTCCCGGTAATCCGTATTTGCA (site AACGTATCTTG)”, with 2.73.
As to “AACGTATCATGGACCGGTTTTCCCGGTAATCCGTATTTGCA (site ACAGTATCTTG)”, the “recombinant UMI read abundance (log10)” value is 1.07.
Regarding “AACGTCTCATGGACCGGTTTTCCCGGTAATCCGTATTTGTC (site AACGTCTCTGA)”, the “recombinant UMI read abundance (log10)” value was determined as 3.05.
For the sequence “AACGTGTCATGGACCGGTTTTCCCGGTAATCCGTATTTGTT (site AACGTGTCTAA)”, the “recombinant UMI read abundance (log10)” value stood at 2.59.
For “AACTAGACATGGACCGGTTTTCCCGGTAATCCGTATTTGAG (site AACTAGACTCT)”, the “recombinant UMI read abundance (log10)” value was determined as 1.48.
Consider “AACTATACATGGACCGGTTTTCCCGGTAATCCGTATTTGGT (site AACTATACTAC)”, for which the “recombinant UMI read abundance (log10)” value was determined as 1.26.
On to “AACTCATCATGGACCGGTTTTCCCGGTAATCCGTATTTGAA (site AACTCATCTTT)”, for which the “recombinant UMI read abundance (log10)” value stood at 1.19.
As for “AACTCGCCATGGACCGGTTTTCCCGGTAATCCGTATTTGCT (site AACTCGCCTAG)”, the “recombinant UMI read abundance (log10)” value was 1.56.
For the sequence “AACTCGCCATGGACCGGTTTTCCCGGTAATCCGTATTTGTT (site AACTCGCCTAA)”, the “recombinant UMI read abundance (log10)” value worked out at 0.0268.
Turning to “AACTGGTCATGGACCGGTTTTCCCGGTAATCCGTATTTGAC (site AACTGGTCTGT)”, the “recombinant UMI read abundance (log10)” value came to 1.18.
Take “AAGAATTCATGGACCGGTTTTCCCGGTAATCCGTATTTGTA (site AAGAATTCTTA)”: the “recombinant UMI read abundance (log10)” value stood at 2.33.
For “AAGACCGCATGGACCGGTTTTCCCGGTAATCCGTATTTGCC (site AAGACCGCTGG)”, the “recombinant UMI read abundance (log10)” value was 2.73.
Regarding “AAGATGCCATGGACCGGTTTTCCCGGTAATCCGTATTTGTG (site AAGATGCCTCA)”, the “recombinant UMI read abundance (log10)” value worked out at 0.653.
“AAGATTCCATGGACCGGTTTTCCCGGTAATCCGTATTTGTA (site AAGATTCCTTA)”: the “recombinant UMI read abundance (log10)” value turned out to be 1.3.
For “AAGCACGCATGGACCGGTTTTCCCGGTAATCCGTATTTGAG (site AAGCACGCTCA)” the value was 0.629; for “AAGCACGCATGGACCGGTTTTCCCGGTAATCCGTATTTGAG (site AAGCACGCTCC)”, 0.225.
Regarding “AAGCACGCATGGACCGGTTTTCCCGGTAATCCGTATTTGAG (site AAGCACGCTCG)”, the “recombinant UMI read abundance (log10)” value was determined as 0.644.
With “AAGCACGCATGGACCGGTTTTCCCGGTAATCCGTATTTGAG (site AAGCACGCTCT)”, the “recombinant UMI read abundance (log10)” value is 1.49.
“AAGCACGCATGGACCGGTTTTCCCGGTAATCCGTATTTGCG (site AAGCACGCTCA)”: the “recombinant UMI read abundance (log10)” value came out at 0.289.
For the sequence “AAGCACGCATGGACCGGTTTTCCCGGTAATCCGTATTTGCG (site AAGCACGCTCC)”, the “recombinant UMI read abundance (log10)” value was found to be 0.223.
Then “AAGCACGCATGGACCGGTTTTCCCGGTAATCCGTATTTGCG (site AAGCACGCTCG)”, with 1.44; and “AAGCACGCATGGACCGGTTTTCCCGGTAATCCGTATTTGCG (site AAGCACGCTCT)”, with 0.766.
Then “AAGCACGCATGGACCGGTTTTCCCGGTAATCCGTATTTGGC (site AAGCACGCTAC)”, with 0.701.
